Results taken from patent publication US20250382344A1, “Soluble GLP1/GIP/NPY2 Receptor Triple Agonists” (Boehringer Ingelheim International GmH, priority 2024, published 2025).

Test: Solubility in 0.1 M phosphate buffer at pH 7
Format: physicochemical
Conditions: 0.1 M phosphate buffer at pH 7, 10 mg/mL final peptide concentration, shaking 2 hours at room temperature, peptides as TFA-salts, measured sample pH 6.5-7.0; for solubility: read-out: Solubility
Protocol: Peptides (as TFA-salts) were weighed out in a filter unit (Mini-UniPrep Syringeless Filter 0.45 μm, Whatman PVDF), and 0.1 M phosphate buffer at pH 7 was added to achieve 10 mg/mL final peptide concentration. The peptides were dissolved by shaking the filter units horizontally at 600 rpm for 2 hours at room temperature. Samples were then filtered to remove any insoluble particles. Controls were prepared by weighing out the corresponding peptide solid material and dissolving it in an appropriate vehicle (e.g. ACN:H2O) to a final concentration of 1 mg/mL. Both, the control and sample were analyzed by reversed phase chromatography. The area under the peak of the sample was compared to the control and the solubility was calculated based on that ratio. The pH was measured and recorded for each sample.

Row | SMILES | solubility at 2 h [µg/mL] | solubility [µg/mL]
1 | CC[C@H](C)[C@H](NC(=O)[C@H](CC(C)C)NC(=O)[C@H](Cc1c[nH]cn1)NC(=O)[C@H](CCCNC(=N)N)NC(=O)[C@@H](NC(=O)[C@H](Cc1ccccc1)NC(=O)[C@H](C)NC(=O)C(C)(C)NC(=O)[C@H](CCC(N)=O)NC(=O)[C@H](C)NC(=O)[C@H](CCC(N)=O)NC(=O)[C@H](CCCCN)NC(=O)[C@H](CCC(=O)O)NC(=O)[C@H](CC(C)C)NC(=O)C(C)(C)NC(=O)[C@@H](NC(=O)[C@H](CO)NC(=O)[C@H](Cc1ccc(O)cc1)NC(=O)[C@H](CC(=O)O)NC(=O)[C@H](CO)NC(=O)[C@@H](NC(=O)[C@H](Cc1ccccc1)NC(=O)[C@@H](NC(=O)[C@H](C)NC(=O)[C@H](CCC(=O)O)NC(=O)C(C)(C)NC(=O)[C@@H](N)Cc1ccc(O)cc1)[C@@H](C)O)[C@@H](C)O)[C@@H](C)CC)C(C)C)C(=O)N[C@@H](CC(N)=O)C(=O)N[C@@H](CCCCNC(=O)[C@@H](N)CCCCNC(=O)CC[C@H](NC(=O)CC[C@H](NC(=O)CC[C@H](NC(=O)CC[C@H](NC(=O)CC[C@H](NC(=O)CC[C@H](NC(=O)CCCCCCCCCCCCCCCCC(=O)O)C(=O)O)C(=O)O)C(=O)O)C(=O)O)C(=O)O)C(=O)O)C(=O)NC(C)(C)C(=O)N[C@H](C(=O)N[C@@H](CCCNC(=N)N)C(=O)N[C@@H](CCC(N)=O)C(=O)N[C@@H](CCCNC(=N)N)C(=O)N[C@@H](Cc1ccc(O)cc1)C(N)=O)[C@@H](C)O [Compound 93, Y-Aib-E-A-T-F-T-S-D-Y-S-I-Aib-L-E-K-Q-A-Q-Aib-A-F-V-R-H-L-I-N-K(1,3)-Aib-T-R-Q-R-Y-NH2.C18DA-gGlu-gGlu-gGlu-gGlu-gGlu-gGlu-eLys(1,2)] | 10000 | –
2 | CC[C@H](C)[C@H](NC(=O)[C@H](CC(C)C)NC(=O)[C@H](Cc1c[nH]cn1)NC(=O)[C@H](CCCNC(=N)N)NC(=O)[C@@H](NC(=O)[C@H](Cc1ccccc1)NC(=O)[C@H](CCC(=O)O)NC(=O)C(C)(C)NC(=O)[C@H](CCC(N)=O)NC(=O)[C@H](C)NC(=O)[C@H](CCC(N)=O)NC(=O)[C@H](CCCCN)NC(=O)[C@H](CCC(=O)O)NC(=O)[C@H](CC(C)C)NC(=O)C(C)(C)NC(=O)[C@@H](NC(=O)[C@H](CO)NC(=O)[C@H](Cc1ccc(O)cc1)NC(=O)[C@H](CC(=O)O)NC(=O)[C@H](CO)NC(=O)[C@@H](NC(=O)[C@H](Cc1ccccc1)NC(=O)[C@@H](NC(=O)CNC(=O)[C@H](CCC(=O)O)NC(=O)C(C)(C)NC(=O)[C@@H](N)Cc1ccc(O)cc1)[C@@H](C)O)[C@@H](C)O)[C@@H](C)CC)C(C)C)C(=O)N[C@@H](CC(N)=O)C(=O)N[C@@H](CCCCNC(=O)CCCCCNC(=O)CC[C@H](NC(=O)[C@H](CCC(=O)O)NC(=O)CC[C@H](NC(=O)CC[C@H](NC(=O)CC[C@H](NC(=O)CCCCCCCCCCCCCCCCC(=O)O)C(=O)O)C(=O)O)C(=O)O)C(=O)O)C(=O)N[C@@H](CC(C)C)C(=O)N[C@H](C(=O)N[C@@H](CCCNC(=N)N)C(=O)N[C@@H](CCC(N)=O)C(=O)N[C@@H](CCCNC(=N)N)C(=O)N[C@@H](Cc1ccc(O)cc1)C(N)=O)[C@@H](C)O [Compound 45, Y-Aib-E-G-T-F-T-S-D-Y-S-I-Aib-L-E-K-Q-A-Q-Aib-E-F-V-R-H-L-I-N-K(1,3)-L-T-R-Q-R-Y-NH2.C18DA-gGlu-gGlu-gGlu-gGlu-gGlu-AHX(1,2)] | – | 5000
3 | CC[C@H](C)[C@H](NC(=O)[C@H](Cc1ccccc1)NC(=O)[C@H](C)NC(=O)C(C)(C)NC(=O)[C@H](CCC(N)=O)NC(=O)[C@H](C)NC(=O)[C@H](CCC(N)=O)NC(=O)[C@H](CCCCN)NC(=O)[C@H](CC(=O)O)NC(=O)[C@H](CC(C)C)NC(=O)C(C)(C)NC(=O)[C@@H](NC(=O)[C@H](CO)NC(=O)[C@H](Cc1ccc(O)cc1)NC(=O)[C@H](CC(=O)O)NC(=O)[C@H](CO)NC(=O)[C@@H](NC(=O)[C@H](Cc1ccccc1)NC(=O)[C@@H](NC(=O)CNC(=O)[C@H](CCC(=O)O)NC(=O)C(C)(C)NC(=O)[C@@H](N)Cc1ccc(O)cc1)[C@@H](C)O)[C@@H](C)O)[C@@H](C)CC)C(=O)N[C@@H](CCCNC(=N)N)C(=O)N[C@@H](Cc1c[nH]cn1)C(=O)N[C@@H](CC(C)C)C(=O)N[C@H](C(=O)N[C@@H](CC(N)=O)C(=O)N[C@@H](CCCCNC(=O)[C@@H](N)CCCCNC(=O)CC[C@H](NC(=O)CC[C@H](NC(=O)CC[C@H](NC(=O)CC[C@H](NC(=O)CC[C@H](NC(=O)CC[C@H](NC(=O)CCCCCCCCCCCCCCCCC(=O)O)C(=O)O)C(=O)O)C(=O)O)C(=O)O)C(=O)O)C(=O)O)C(=O)NC(C)(C)C(=O)N[C@H](C(=O)N[C@@H](CCCNC(=N)N)C(=O)N[C@@H](CCC(N)=O)C(=O)N[C@@H](CCCNC(=N)N)C(=O)N[C@@H](Cc1ccc(O)cc1)C(N)=O)[C@@H](C)O)[C@@H](C)CC [Compound 102, Y-Aib-E-G-T-F-T-S-D-Y-S-I-Aib-L-D-K-Q-A-Q-Aib-A-F-I-R-H-L-I-N-K(1,3)-Aib-T-R-Q-R-Y-NH2.C18DA-gGlu-gGlu-gGlu-gGlu-gGlu-gGlu-eLys(1,2)] | – | 9100
4 | CC[C@H](C)[C@H](NC(=O)[C@H](CC(C)C)NC(=O)[C@H](Cc1c[nH]cn1)NC(=O)[C@H](CCCNC(=N)N)NC(=O)[C@@H](NC(=O)[C@H](Cc1ccccc1)NC(=O)[C@H](C)NC(=O)C(C)(C)NC(=O)[C@H](CCC(N)=O)NC(=O)[C@H](C)NC(=O)[C@H](CCC(N)=O)NC(=O)[C@H](CCCCN)NC(=O)[C@H](CCC(=O)O)NC(=O)[C@H](CC(C)C)NC(=O)C(C)(C)NC(=O)[C@@H](NC(=O)[C@H](CO)NC(=O)[C@H](Cc1ccc(O)cc1)NC(=O)[C@H](CC(=O)O)NC(=O)[C@H](CO)NC(=O)[C@@H](NC(=O)[C@H](Cc1ccccc1)NC(=O)[C@@H](NC(=O)CNC(=O)[C@H](CCC(=O)O)NC(=O)C(C)(C)NC(=O)[C@@H](N)Cc1ccc(O)cc1)[C@@H](C)O)[C@@H](C)O)[C@@H](C)CC)C(C)C)C(=O)N[C@@H](CC(N)=O)C(=O)N[C@@H](CCCCNC(=O)COCCOCCNC(=O)CC[C@H](NC(=O)CC[C@H](NC(=O)CC[C@H](NC(=O)CC[C@H](NC(=O)CCCCCCCCCCCCCCCCC(=O)O)C(=O)O)C(=O)O)C(=O)O)C(=O)O)C(=O)NC(C)(C)C(=O)N[C@H](C(=O)N[C@@H](CCCNC(=N)N)C(=O)N[C@@H](CCC(N)=O)C(=O)N[C@@H](CCCNC(=N)N)C(=O)N[C@@H](Cc1ccc(O)cc1)C(N)=O)[C@@H](C)O [Compound 110, Y-Aib-E-G-T-F-T-S-D-Y-S-I-Aib-L-E-K-Q-A-Q-Aib-A-F-V-R-H-L-I-N-K(1,3)-Aib-T-R-Q-R-Y-NH2.C18DA-gGlu-gGlu-gGlu-gGlu-OEG(1,2)] | – | 800
